Measurements taken from patent US12577213B2 (NINGBO COMBIREG PHARMACEUTICAL TECHNOLOGY CO., LTD., priority 2020, dated 2026).
Like-named read-outs stand apart in the source and are kept apart here.

Tests used:
[1] = test system: A549 (non-small cell lung cancer); test: NCI method SRB growth inhibition, A549; assay type: cell-based; details: Homo sapiens; A549, treated 48 hours, SRB stain
Excerpt: (§1) In this embodiment, the method of National Cancer Institute (NCI) was used to evaluate the anti-tumor activity of the embodiment compounds in the present disclosure. Nine representative cell lines were selected for activity evaluation, including A549 (non-small cell lung cancer), HCT116 (colon cancer), SF295 (central nervous system tumor), LOX-IMVI (melanoma), 786-0 (renal cancer), K562 (leukemia), PC-3 (prostate cancer), OVCAR-3 (ovarian cancer) and HS 578T (breast cancer).
(§2) The specific method was as follows: 60 tumor cell lines of 9 kinds of human cancers were used to evaluate the inhibitory activity of the compound in vitro. A test group, a parallel control group and a vehicle control group were set up. The parallel control group was fixed immediately before the compound was added; the cells in the test group were fixed after being treated with the compound for 48 hours; the vehicle control group was fixed after an equal volume of complete medium was added for 48 hours. Sulforhodamine B (SRB) was used to stain, and the OD value was measured at a wavelength of 515 nm. The specific calculation method was as follows: the OD value of the parallel control group was recorded as Tz, the OD value of the vehicle control group was recorded as C, and the OD value of the test group was recorded as (Ti). If Ti≥Tz, it means that the cells still grow after the drug was added, and the growth rate %=[(Ti−Tz)/(C−Tz)]×100; if Ti<Tz, it means that the cells are killed after the drug was added, and the growth rate %=[(Ti−Tz)/Tz]×100. Three parameters were used to evaluate the anti-tumor activity of compounds in this method: 50% growth inhibitory concentration (GI50): i.e. the compound concentration at [(Ti−Tz)/(C−Tz)]×100=50; complete growth inhibitory concentration (TGI): the compound concentration at Ti=Tz; the drug concentration required to kill 50% of the cells (LC50): i.e. the compound concentration at [(Ti−Tz)/Tz]×100=−50.
(§3) The inhibitory activities of the embodiment compounds on nine representative tumor cell lines were listed in detail in Table 1. Wherein, the GI50 value means “50% growth inhibition rate”, that is, the concentration of the compound to be tested when it can inhibit […] of cell growth; “ND” means not detected.

[2] = Liver microsomes stability; assay type: in vitro ADME, human; details: 1 μM compound, 1 mg/mL human liver microsomes, 1 mM NADPH; for half-life at 1 μM: read-out: T½ of HLM
Method: The compound to be tested with final concentration of 1 μM was incubated with 1 mg/mL of human liver microsomes and 1 mM of NADPH, and a group without NADPH was set as a negative control. The reaction mixture was quenched with methanol at five time points of 0, 5, 15, 30 and 60 min, respectively, then centrifuged at 2500 rpm for 20 min to precipitate proteins, and the resulting supernatant was analyzed by LC-MS/MS. The data was analyzed and the k value and half-life T1/2 was calculated, T1/2(min)=0.693/k.
Wherein, compounds a, b and c are active compounds disclosed in patent No. ZL201610154581.3.

786-0 (renal cancer) = test: NCI method SRB growth inhibition, 786-0; assay type: cell-based; details: Homo sapiens; 786-0, treated 48 hours, SRB stain
Excerpt: as §1, §2, §3

K562 (leukemia) = test: NCI method SRB growth inhibition, K562; assay type: cell-based; details: Homo sapiens; K562, treated 48 hours, SRB stain
Excerpt: as §1, §2, §3

PC-3 (prostate cancer) = test: NCI method SRB growth inhibition, PC-3; assay type: cell-based; details: Homo sapiens; PC-3, treated 48 hours, SRB stain
Excerpt: as §1, §2, §3

OVCAR-3 (ovarian cancer) = test: NCI method SRB growth inhibition, OVCAR-3; assay type: cell-based; details: Homo sapiens; OVCAR-3, treated 48 hours, SRB stain
Excerpt: as §1, §2, §3

LOX-IMVI (melanoma) = test: NCI method SRB growth inhibition, LOX-IMVI; assay type: cell-based; details: Homo sapiens, treated 48 hours, SRB stain
Excerpt: as §1, §2, §3

[3] = test system: SF295 (central nervous system tumor); test: NCI method SRB growth inhibition, SF295; assay type: cell-based; details: Homo sapiens, SF-295; SF295, treated 48 hours, SRB stain
Excerpt: as §1, §2, §3

HCT116 (colon cancer) = test: NCI method SRB growth inhibition, HCT116; assay type: cell-based; details: Homo sapiens, HCT-116; HCT116, treated 48 hours, SRB stain
Excerpt: as §1, §2, §3

HS 578T (breast cancer) = test: NCI method SRB growth inhibition, HS 578T; assay type: cell-based; details: Homo sapiens, HS578T, treated 48 hours, SRB stain
Excerpt: as §1, §2, §3

SMILES	GI50 [1] [nM]	microsomal CLint at 1 μM [2] [µL/min/mg]	half-life at 1 μM ([2]; human, human liver microsomes) [min]	GI50 (786-0 (renal cancer)) [nM]	GI50 (K562 (leukemia)) [nM]	GI50 (PC-3 (prostate cancer)) [nM]	GI50 (OVCAR-3 (ovarian cancer)) [nM]	GI50 (LOX-IMVI (melanoma)) [nM]	GI50 [3] [nM]	GI50 (HCT116 (colon cancer)) [nM]	GI50 (HS 578T (breast cancer)) [nM]	T½ of HLM [2] [min]	half-life at 1 μM [2] [min]	microsomal CLint at 1 μM ([2]; human, human liver microsomes) [µL/min/mg]
[2H]C([2H])([2H])N(C(=O)C[C@H]1C(=O)Nc2cc(NC(=O)c3cc(OC)c(OC)c(OC)c3Br)c(Oc3cc(C)cc(C)c3)cc2C(=O)N1C)C([2H])([2H])[2H] [Compound 15, (S)-2-bromo-N-[3-[2-[bis(trideuteromethyl)amino]-2-oxoethyl]-7-(3,5-dimethylphenoxy)-4-methyl-2,5-dioxo-2,3,4,5-tetrahydro-1H-benzo[e][1,4]diazepin-8-yl]-3,4,5-trimethoxybenzamide]	< 5	10.8	64.2	6.2	< 5	< 5	< 5	< 5	< 5					
[2H]C([2H])([2H])N1C(=O)c2cc(Oc3cc(C)cc(C)c3)c(NC(=O)c3cc(OC)c(OC)c(OC)c3Br)cc2NC(=O)[C@@H]1CC(=O)N(CC)CC [Compound 18, (S)-2-bromo-N-[3-[2-(diethylamino)-2-oxoethyl]-7-(3,5-dimethylphenoxy)-4-trideuteromethyl-2,5-dioxo-2,3,4,5-tetrahydro-1H-benzo[e][1,4]diazepin-8-yl]-3,4,5-trimethoxybenzamide]	< 5	65.1	10.6	< 5	< 5	< 5	< 5	< 5	< 5	< 5	15.4			
[2H]C([2H])([2H])Oc1cc(C(=O)Nc2cc3c(cc2Oc2cc(C)cc(C)c2)C(=O)N(C)[C@@H](CC(=O)N(C)OC)C(=O)N3)c(Cl)c(OC([2H])([2H])[2H])c1OC([2H])([2H])[2H] [Compound 36]	< 5	6.8	102	11.9	< 5	< 5	< 5	< 5	10	< 5	8.5			
[2H]C([2H])([2H])c1c(OC)cc(C(=O)Nc2cc3c(cc2Oc2cc(C)cc(C)c2)C(=O)N[C@@H](CC(=O)N(CC)CC)C(=O)N3)c(Cl)c1OC [Compound 3, (S)-2-chloro-N-[3-[2-(diethylamino)-2-oxoethyl]-7-(3,5-dimethylphenoxy)-2,5-dioxo-2,3,4,5-tetrahydro-1H-benzo[e][1,4]diazepin-8-yl]-3,5-dimethoxy-4-(trideuteromethyl)benzamide]	< 5	18.1	38	110	8.4	43.9	28.6	18.4	53.2	11.2	91.9	38.3		
[2H]C([2H])([2H])N1C(=O)c2cc(Oc3cc(C)cc(C)c3)c(NC(=O)c3cc(OC)c(OC)c(OC)c3Cl)cc2NC(=O)[C@@H]1CC(=O)N(C([2H])([2H])C([2H])([2H])[2H])C([2H])([2H])C([2H])([2H])[2H] [Compound 19, (S)-2-chloro-N-[3-[2-[bis(pentadeuteroethyl)amino]-2-oxoethyl]-7-(3,5-dimethylphenoxy)-4-(trideuteromethyl)-2,5-dioxo-2,3,4,5-tetrahydro-1H-benzo[e][1,4]diazepin-8-yl]-3,4,5-trimethoxybenzamide]	5.9	21.1	32.9	19.7	< 5	< 5	6.2	< 5	11.8	5	80.7			
[2H]C([2H])([2H])Oc1cc(C(=O)Nc2cc3c(cc2Oc2cc(C)cc(C)c2)C(=O)N(C)[C@@H](CC(=O)N(C)OC)C(=O)N3)c(Br)c(OC([2H])([2H])[2H])c1OC([2H])([2H])[2H] [Compound 32]	< 5			< 5	< 5	< 5	< 5	< 5	5	< 5	< 5		24.7	28.1
CCN(CC)C(=O)C[C@@H]1NC(=O)c2cc(Oc3cc(C)cc(C)c3)c(NC(=O)c3cc(OC)c(OC)c(OC)c3Cl)cc2NC1=O [c, reference compound]		26.5	26.2											
[2H]C([2H])([2H])Oc1cc(C(=O)Nc2cc3c(cc2Oc2cc(C)cc(C)c2)C(=O)N[C@@H](CC(=O)N(CC)CC)C(=O)N3)c(Br)c(OC([2H])([2H])[2H])c1OC([2H])([2H])[2H] [Compound 4, (S)-2-bromo-N-[3-[2-(diethylamino)-2-oxoethyl]-7-(3,5-dimethylphenoxy)-2,5-dioxo-2,3,4,5-tetrahydro-1H-benzo[e][1,4]diazepin-8-yl]-3,4,5-tris(trideuteromethoxy)benzamide]	< 5	20.5	33.8	11.9	< 5	< 5	< 5	< 5	6	< 5				
CCN(CC)C(=O)C[C@@H]1NC(=O)c2cc(Oc3cc(C)cc(C)c3)c(NC(=O)c3cc(OC)c(OC)c(OC)c3Br)cc2NC1=O [b, reference compound]		26.4	26.3											
[2H]C([2H])([2H])N(C(=O)C[C@@H]1NC(=O)c2cc(Oc3cc(C)cc(C)c3)c(NC(=O)c3cc(OC)c(OC)c(OC)c3Br)cc2NC1=O)C([2H])([2H])[2H] [Compound 22, (S)-2-bromo-N-[3-[2-[bis(trideuteromethyl)amino]-2-oxoethyl]-7-(3,5-dimethylphenoxy)-2,5-dioxo-2,3,4,5-tetrahydro-1H-benzo[e][1,4]diazepin-8-yl]-3,4,5-trimethoxybenzamide]	< 5	4.6	151	12.6	< 5	< 5	< 5	< 5	10	7.1				
